Results published in patent publication US20060097218A1, “Etchants containing filterable surfactant” (General Chemical Performance Products LLC, priority 2004, published 2006).

Experiments:
Assay type in all cases: physicochemical
[1] = Surface tension measurement of surfactant-containing etchant; settings: BOE 7-1 (about 35% NH4F, about 6.3% HF); 25° C.; prior to filtration; incremental additions until ST stabilized or saturation
Protocol: In the examples, a surfactant was added to a mixture of predetermined amounts of hydrofluoric acid, ammonium fluoride and deionized water to prepare an etchant composition. The prepared composition was kept standing at room temperature and test samples were periodically withdrawn to measure the change of surface tension of the composition.
(§1) A preliminary testing was conducted prior to filtration to evaluate whether individual components of the claimed surfactant(s), would work individually, need modification, or require combining to give a basic understanding which would lead to synthesis of the surfactant(s) of the invention. Potential surfactant candidates were prepared and evaluated in an aqueous mixture comprised of about 35% by weight of ammonium fluoride, NH4F, and about 6.3% by weight of hydrofluoric acid, HF, (defined as BOE 7-1).
In this run, surfactant “H” was tested with an aqueous solution of mixed etchants consisting of about 85% by weight of sulfuric acid, about 5% by weight of nitric acid, and about 1.5% by weight hydrofluoric acid. 100 ppm (Sample 1) and 200 ppm (Sample 2) by weight of surfactant “H” were mixed into two separate samples of FS Etch. The surface tension of both unfiltered samples was measured 1 hour upon batch completion and after 15 days of storage.
Additional measurements of surface tension at 25° C. were carried out on unfiltered aqueous etchants of (1) 40% by weight ammonium fluoride, and (2) 9.2% by weight of hydrofluoric acid containing 100 ppm by weight of surfactant “H” (Table I).

[2] = Solubility of surfactant in BOE (saturation point); settings: BOE 7-1; prior to filtration
Protocol: Potential surfactant candidates were prepared and evaluated in an aqueous mixture comprised of about 35% by weight of ammonium fluoride, NH4F, and about 6.3% by weight of hydrofluoric acid, HF, (defined as BOE 7-1).

[3] = Preliminary testing of potential surfactants: comments and overall assessment; settings: BOE 7-1; prior to filtration
Protocol: as §1

SMILES | Surface Tension [1] [dynes/cm] | Solubility In BOE [2] | Comments [3] | Promising (Yes/No) [3]
NC1CCCCCC1 [Surfactant A, Cycloheptylamine] | 72 | ≦400 ppm | ST too high | No
NC1CCCCCCC1 [Surfactant B, Cyclooctylamine] | 65 | ≦600 ppm | ST too high | No
NC1CCCC1 [Surfactant C, Cyclopentylamine] | 65 | ≦400 ppm | ST too high | No
O=C(O)C(F)(F)C(F)(F)C(F)(F)C(F)(F)C(F)(F)C(F)(F)C(F)(F)F [Surfactant D, Perfluorooctanoic Acid] | 20 | ≦100 ppm | Precipitated | No
O=C(O)C(F)(F)C(F)(F)C(F)(F)C(F)(F)C(F)(F)C(F)(F)F [Surfactant E, Perfluoroheptanoic Acid] | 20 | ≦100 ppm | Precipitated | No
O=C(O)C(F)(F)C(F)(F)C(F)(F)C(F)(F)C(F)(F)C(F)(F)C(F)(F)C(F)(F)F [Surfactant F, Perfluorononanoic Acid] | 25 | ≦100 ppm | Precipitated | No
O=C(O)C(F)(F)C(F)(F)C(F)(F)C(F)(F)F [Surfactant G, Perfluoropentanoic Acid] | 24 | ≦100 ppm | Precipitated | No
